Measurements: PMC7180456, “Multitarget Anticancer Agents Based on Histone Deacetylase and Protein Kinase CK2 Inhibitors” (Molecules, 2020)
Like-named read-outs stand apart in the source and are kept apart here.

Tests used:
HDAC1 = tested on: HDAC1; design: method as in doi:10.1039/C6RA09717K; settings: Figure 3; read-out: HDAC1 IC50 of previously described dual inhibitors; cited from earlier work
CK2 = settings: Figure 3; read-out: CK2 IC50 of previously described dual inhibitors; cited from earlier work
two mammalian cell lines = tested on: two mammalian cell lines; design: method as in doi:10.1039/C6RA09717K; settings: cited from earlier work
HL-60/wt cells = assay: Depolarization of mitochondria, JC-1 assay, FACS; assay type: cell-based, human; settings: 24 h
[1] = tested on: HCT-116 colon carcinoma cells; assay: Cytotoxicity, trypan blue exclusion assay, 24 h; settings: Homo sapiens
Procedure: (§4) Walter Berger, Institute of Cancer Research, Vienna Medical University. Human embryonal kidney cells of HEK293 line were obtained from cell culture collection of R.E. Kavetsky Institute of Experimental Pathology, Oncology and Radiobiology, National Academy of Sciences of Ukraine (Kyiv, Ukraine).
(§5) Cells were seeded (5 × 10^5/mL for leukemia cells and 1 × 10^5/mL for carcinoma cells) into 24-well tissue culture plates (Greiner Bio-one, Frickenhausen, Germany) and were permitted to adhere and grow for 24 h before the experiment. Short-term (24 h) cytotoxic effect of antitumor drugs was studied under the Evolution 300 Trino microscope (Delta Optical, Nowe Osiny, Poland) after cell staining with trypan blue dye (0.1%).
(§6) Final concentration of DMSO in cell culture was 0.5% or less.
(§7) All experiments were performed in triplicate and repeated three times. Statistical analysis of data was conducted in GraphPad Prism 7.0 Software (GraphPad Software, Inc.) using Student’s t test. Statistical significance was set at P ≤ 0.05. Evaluation of LC50 values of each compound was done by built-in functions of GraphPad Prism (non-linear regression, curve fit, [Inhibitor] vs. normalized response - Variable slope).

[2] = tested on: breast adenocarcinoma cells of MCF-7 line; assay: Cytotoxicity, trypan blue exclusion assay, 24 h; settings: Homo sapiens
Procedure: as §4, §5, §6, §7

[3] = tested on: human tumor and pseudonormal cell lines; assay: Cytotoxicity, trypan blue assay, range over the cell lines tested; assay type: cell-based; settings: 24 h, read-out: LC50 range depending on cell line
Source text: (§1) Statistical significance was set at P ≤ 0.05.

HDAC6 = molecular target: T1, HDAC6 (Homo sapiens, UniProt Q9UBN7); assay: HDAC6 inhibition, fluorometric method (Enzo Fluorometric Drug Discovery Assay Kit); assay type: biochemical; settings: read-out: Inhibitory activity IC50 on HDAC6
T1 construct: purchased Enzo Life Sciences, Inc
T1 sequence (Q9UBN7 1-1215): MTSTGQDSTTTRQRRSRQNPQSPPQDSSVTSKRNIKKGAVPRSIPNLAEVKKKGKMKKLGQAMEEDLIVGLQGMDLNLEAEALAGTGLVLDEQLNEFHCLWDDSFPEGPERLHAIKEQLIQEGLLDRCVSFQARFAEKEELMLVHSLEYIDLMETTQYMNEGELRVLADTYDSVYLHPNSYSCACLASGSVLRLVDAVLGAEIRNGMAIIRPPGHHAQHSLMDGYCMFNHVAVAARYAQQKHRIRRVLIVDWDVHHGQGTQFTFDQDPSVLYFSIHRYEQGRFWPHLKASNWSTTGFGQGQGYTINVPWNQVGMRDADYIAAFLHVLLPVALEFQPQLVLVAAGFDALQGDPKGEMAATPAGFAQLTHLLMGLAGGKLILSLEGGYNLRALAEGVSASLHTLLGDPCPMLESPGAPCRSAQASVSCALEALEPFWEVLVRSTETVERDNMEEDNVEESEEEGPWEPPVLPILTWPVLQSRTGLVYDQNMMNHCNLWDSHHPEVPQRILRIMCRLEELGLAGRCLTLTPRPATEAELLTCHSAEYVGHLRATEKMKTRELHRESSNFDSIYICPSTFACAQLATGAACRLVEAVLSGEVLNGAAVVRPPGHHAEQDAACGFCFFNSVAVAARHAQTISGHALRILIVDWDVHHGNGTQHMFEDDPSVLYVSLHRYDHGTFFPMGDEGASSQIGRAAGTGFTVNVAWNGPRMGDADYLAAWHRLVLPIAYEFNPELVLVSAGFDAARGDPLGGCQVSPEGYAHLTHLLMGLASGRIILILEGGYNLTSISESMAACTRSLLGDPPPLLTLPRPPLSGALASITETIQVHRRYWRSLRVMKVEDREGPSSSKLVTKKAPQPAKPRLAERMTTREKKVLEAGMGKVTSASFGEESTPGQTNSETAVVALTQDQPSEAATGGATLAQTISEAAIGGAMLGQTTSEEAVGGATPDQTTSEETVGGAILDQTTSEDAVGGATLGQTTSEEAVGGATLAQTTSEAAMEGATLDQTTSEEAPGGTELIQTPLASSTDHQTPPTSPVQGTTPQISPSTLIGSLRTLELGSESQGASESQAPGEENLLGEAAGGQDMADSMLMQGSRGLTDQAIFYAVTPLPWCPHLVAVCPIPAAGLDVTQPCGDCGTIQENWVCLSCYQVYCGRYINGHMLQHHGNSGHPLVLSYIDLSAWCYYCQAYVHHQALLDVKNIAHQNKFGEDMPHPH
Procedure: For this reason, we analyzed the activity of 15 and 19, together with other compounds from the alkyl and triazole series in HDAC6, tested using a fluorometric method (Table 1).
(§2) 15 µL of HDAC1 (0.4 µg/well) or HDAC6 (0.5 µg/well) were incubated at 37 °C for 30 minutes with 10 µL of inhibitor diluted in 5% DMSO and 25 µL of fluorogenic substrate (0.05 µL/well of 5 mM solution). Reactions were stopped with the developer and trichostatin A, diluted in buffer without BSA, and the plate was incubated at 30 °C for 45 min, followed by measuring the fluorescence (Ex. 360 nm, Em. 450 nm, Fluoroskan, Thermo Scientific).

[4] = Cytotoxicity, trypan blue exclusion assay, 24 h (pseudonormal cells); settings: human, HEK293 embryonic kidney cells (pseudonormal)
Procedure: as §4, §5, §6, §7

human recombinant HDAC1 = molecular target: T2, human recombinant HDAC1 (Homo sapiens, UniProt Q13547); assay: HDAC1 inhibition, fluorometric method (Enzo Fluorometric Drug Discovery Assay Kit); assay type: biochemical; settings: read-out: Inhibitory activity IC50 on HDAC1
T2 construct: purchased Enzo Life Sciences, Inc
Procedure: The inhibitory activities of the synthesized compounds were determined against CK2 and HDAC1 and the IC50 values are collected in Table 1. The activity towards human recombinant HDAC1 was tested using a fluorometric method. CK2 inhibitory activity was determined by a radiometric method, using a short peptide ([…]) as a substrate.
as §2

Jurkat T-leukemia cells = assay: Cytotoxicity, trypan blue exclusion assay, 24 h; settings: Homo sapiens
Procedure: as §4, §5, §6, §7

[5] = tested on: HL-60/adr (doxorubicin-resistant, MRP-1 overexpression); assay: Cytotoxicity, trypan blue exclusion assay, 24 h; assay type: cell-based; settings: Homo sapiens, HL60/ADR
Source text: (§3) Taking into consideration the high abundance of CK2 kinase in leukemia and lymphomas, the ability of selected CK2-HDAC dual inhibitors to circumvent MDR was investigated in human leukemia cells of HL-60 line and its doxorubicin-resistant (HL-60/adr, MRP-1 overexpression) and vincristine-resistant (HL-60/vinc, P-gp overexpression) sublines.
as §1

[6] = tested on: leukemia cells of HL-60 line; assay: Cytotoxicity, trypan blue exclusion assay, 24 h; assay type: cell-based; settings: Homo sapiens
Source text: as §3, §1

[7] = tested on: HL-60/vinc (vincristine-resistant, P-gp overexpression); assay: Cytotoxicity, trypan blue exclusion assay, 24 h; assay type: cell-based; settings: Homo sapiens, HL60/vinc
Source text: as §3, §1

human recombinant CK2α = molecular target: T3, human recombinant CK2α (Homo sapiens, UniProt P68400); assay: CK2 inhibition, radiometric method with peptide substrate […]; assay type: biochemical
T3 construct: GST; made in house; host or cells: bacteria
Procedure: The activity towards human recombinant HDAC1 was tested using a fluorometric method. CK2 inhibitory activity was determined by a radiometric method, using a short peptide ([…]) as a substrate.
Recombinant human protein kinase GST-CK2 was produced in bacteria and purified as described elsewhere. […] The reaction buffer contained 20 µM [γ-32P] ATP (specific radioactivity 300–1000 cpm/pmol), 15 mM Mg^2+, 20 mM Tris–HCl pH 7.5, and 6 mM 2-mercaptoethanol. 10 µL of the assay mixture was spotted onto a square (1 cm/1 cm) of Whatman P81 paper and allowed to dry. Each square was immersed in cold 0.5% phosphoric acid, and washed three times during 10 min, allowed to dry and transferred into a vessel containing Opti-Phase liquid (scintillation solution) and radioactivity was quantified using a scintillation counter (MicroBeta, Perkin Elmer) by Cerenkov counting. All experiments were performed in triplicate. IC50 values were calculated using GraphPad Prism (version 4.0) software.

[8] = HCT-116, 24 h, read-out: LC50 Values of Compounds for Cell Line, HCT-116
[9] = HCT-116, read-out: LC50 values of compounds for cell line, HCT-116
[10] = MCF7, 24 h, read-out: LC50 Values of Compounds for Cell Line, MCF-7
[11] = MCF7, read-out: LC50 values of compounds for cell line, MCF-7
[12] = LC50 Values of Compounds for Cell Line, HEK293, Table 2, trypan blue, 24 h, M ± SD
[13] = LC50 values of compounds for cell line, HEK293, supplement Table 4S, M±SD
[14] = 24 h, read-out: LC50 Values of Compounds for Cell Line, Jurkat
[15] = read-out: LC50 values of compounds for cell line, Jurkat
[16] = Table 2, trypan blue, 24 h, M ± SD, read-out: LC50 Values of Compounds for Cell Line, HL-60/adr
[17] = supplement Table 4S, M±SD, read-out: LC50 values of compounds for cell line, HL-60/adr
[18] = Table 2, trypan blue, 24 h, M ± SD, read-out: LC50 Values of Compounds for Cell Line, HL-60
[19] = supplement Table 4S, M±SD, read-out: LC50 values of compounds for cell line, HL-60
[20] = Table 2, trypan blue, 24 h, M ± SD, read-out: LC50 Values of Compounds for Cell Line, HL-60/vinc
[21] = supplement Table 4S, M±SD, read-out: LC50 values of compounds for cell line, HL-60/vinc

T3 sequence (P68400 whole entry): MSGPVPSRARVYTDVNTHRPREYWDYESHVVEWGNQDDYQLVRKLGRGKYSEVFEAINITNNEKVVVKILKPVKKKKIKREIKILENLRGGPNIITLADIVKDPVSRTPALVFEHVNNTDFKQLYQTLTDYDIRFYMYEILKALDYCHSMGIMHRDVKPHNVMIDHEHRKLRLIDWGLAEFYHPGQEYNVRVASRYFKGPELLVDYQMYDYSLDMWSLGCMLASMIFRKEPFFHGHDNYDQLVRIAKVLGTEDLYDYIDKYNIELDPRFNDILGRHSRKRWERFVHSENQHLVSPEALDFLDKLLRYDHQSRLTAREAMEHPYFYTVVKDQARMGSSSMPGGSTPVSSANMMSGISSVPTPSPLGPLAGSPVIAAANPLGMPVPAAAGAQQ
T2 sequence (Q13547 whole entry): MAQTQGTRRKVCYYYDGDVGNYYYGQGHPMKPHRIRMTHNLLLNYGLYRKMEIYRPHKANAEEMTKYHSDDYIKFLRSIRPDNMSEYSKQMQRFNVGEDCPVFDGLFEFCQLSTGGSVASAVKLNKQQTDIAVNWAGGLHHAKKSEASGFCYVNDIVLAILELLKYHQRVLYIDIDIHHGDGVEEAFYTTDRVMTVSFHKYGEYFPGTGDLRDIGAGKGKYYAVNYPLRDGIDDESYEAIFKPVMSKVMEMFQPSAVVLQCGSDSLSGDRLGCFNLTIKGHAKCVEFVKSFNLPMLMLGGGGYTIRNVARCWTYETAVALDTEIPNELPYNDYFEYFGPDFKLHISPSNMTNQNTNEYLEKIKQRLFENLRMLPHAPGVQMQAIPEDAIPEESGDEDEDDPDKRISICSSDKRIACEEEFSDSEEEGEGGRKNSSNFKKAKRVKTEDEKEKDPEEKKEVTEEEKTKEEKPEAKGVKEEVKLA

SMILES | IC50 (HDAC1) | IC50 (CK2) | depolarization of mitochondria (HL-60/wt cells; 10 µM) | depolarization of mitochondria (HL-60/wt cells; 30 µM) | CC50 [1, 8] | CC50 [1, 9] | CC50 [2, 10] | CC50 [2, 11] | CC50 [3] | IC50 (HDAC6) | CC50 at 24 h [4, 12] | CC50 at 24 h [4, 13] | IC50 (human recombinant HDAC1) | CC50 (Jurkat T-leukemia cells; [14]) | CC50 (Jurkat T-leukemia cells; [15]) | CC50 [5, 16] | CC50 [5, 17] | CC50 [6, 18] | CC50 [6, 19] | CC50 [7, 20] | other results
O=C(CCn1cc(CCn2nnc3c(Br)c(Br)c(Br)c(Br)c32)nn1)NO [Compound 1] | 5 µM | 5.4 µM |  |  |  |  |  |  |  |  |  |  |  |  |  |  |  |  |  |  | 
O=C(CCn1cc(CCn2nc3c(Br)c(Br)c(Br)c(Br)c3n2)nn1)NO [Compound 2] | 2.2 µM | 50 µM |  |  |  |  |  |  |  |  |  |  |  |  |  |  |  |  |  |  | cytotoxic activity LC50 (two mammalian cell lines): low micromolar
CN(C)c1nc2c(Br)c(Br)c(Br)c(Br)c2n1CCCCCC(=O)NO [Compound 11b, N-Hydroxy-6-(4,5,6,7-tetrabromo-2-(dimethylamino)-1H-benzo[d]imidazol-1-yl)hexanamide] |  |  | 14.55% | 34.06% | 4.22 ± 0.46 µM | 1.9 µM | 15.7 ± 2.54 µM | 9.97 µM | 4 to 23 µM | 0.66 µM | 23.3 ± 4.38 µM | 13.6 µM | 1.46 µM | 10.2 ± 1.43 µM | 10 µM | 16.2 ± 1.68 µM | 10.6 µM | 7.67 ± 1.17 µM | 6.59 µM | 16.8 ± 3.34 µM | CC50 [7, 21]: 12.7 µM
CN(C)c1nc2c(Br)c(Br)c(Br)c(Br)c2n1CCCCCCC(=O)NO [Compound 11c, N-Hydroxy-7-(4,5,6,7-tetrabromo-2-(dimethylamino)-1H-benzo[d]imidazol-1-yl)heptanamide] |  |  | 34.73% | 49.98% | 1.9 ± 0.24 µM | 3.1 µM | 9.97 ± 0.99 µM | 9.02 µM | 1.9 to 13.6 µM | 1.13 µM | 13.6 ± 0.8 µM | 8.41 µM | 1.77 µM | 9.47 ± 1.1 µM | 5.63 µM | 10.6 ± 1.53 µM | 8.4 µM | 6.59 ± 0.96 µM | 4.69 µM | 12.1 ± 3.27 µM | fold difference in the CK2 inhibitory activity compared to 11b (human recombinant CK2α; compared to 11b): 4.5 fold; IC50 (human recombinant CK2α; radiometric method, 20 µM ATP, read-out: Inhibitory activity IC50 on CK2): 16.6 µM; CC50 [7, 21]: 2.49 µM
